According to US9475842B2, “Hexadepsipeptide analogues as anticancer compounds” (PIRAMAL ENTERPRISES LIMITED, priority 2012, dated 2016):

What was measured:
Assay in all cases: Monolayer assay (CCK-8 cytotoxicity)
Type in all cases: cell-based
[1] = system: JURKAT (T cell leukaemia); settings: Homo sapiens, 24 hrs exposure
Protocol: (§1) The assays were designed as in the reference, BMC Cancer, 2010, 10, 610, 1-11; the disclosure of which is incorporated by reference for the teaching of the assay.
(§2) Human tumour cell lines: Panc-1 (Pancreatic Cancer), HCT 116 (Colorectal Cancer), ACHN (Renal Cell Carcinoma), Calu-1 (Lung Carcinoma), MiaPaca2 (Pancreatic Cancer), FADU (Head and Neck Cancer), PC3 (prostate Cancer), G361 (Melanoma), MDA-MB435S (Melanoma), HeLa (Cervical Cancer) were grown in Minimal Essential Media with Eagle's Basal Salts (MEM-EBS) obtained from AMIMED (BioConcept-Switzerland). Tumour cell lines: MDA-MB231 (Breast Cancer), JURKAT (T cell leukaemia), H460 (Small Cell Lung Cancer) were cultured in RPMI 1640 (AMIMED, BioConcept, Switzerland) medium. All tumour cell lines were supplemented with 10% Foetal Bovine Serum (FBS) (GIBCO), 1% Penicillin/Streptomycin (Sigma) and 1% Anti-Anti (GIBCO) and grown in T-175 tissue culture flasks (Nunc). MCF-10A, a non-tumourigenic cell line, was cultured in Mammary Epithelial Basal Medium (MEBM) with all standard additions (Lonza, Catalog. No. CC-3150). All cells were grown in 5% CO2 incubator at 37° C. Cells were passaged at 80-90% confluence. Adherent cells were trypsinised using Trypsin-EDTA (Sigma) and maintained. All cell lines were purchased from ATCC (Rockville, Md., USA).
(§3) Compound of Formula (1a) [described in example 7] was dissolved in DMSO to give a required stock solution of 20 mM. Eight different concentrations of the compound of Formula (1a) were prepared by serial dilution of stock solution finally resulting in a (compared to the test concentration) 200-fold higher concentration. Compound of Formula (1a) was tested at the concentration of 0.0001 μM, 0.001 μM, 0.01 μM, 0.03 μM, 0.1 μM, 0.3 μM, 1 μM and 3 μM respectively. Each concentration was evaluated in triplicate.
(§4) Method for determination of IC50 of the compound of Formula (1a): • a) Different cancer/normal cells were seeded at a density of 3000 cells/200 μL well, in a tissue culture grade 96 well plate and allowed them to recover for 24 hrs in a humidified 5±0.2% CO2 incubator at 37±0.5° C. • b) After 24 hrs, 1 μL of 200× (200 times higher than required concentration is denoted as 200×) compound of Formula (1a), dissolved in DMSO, was added to the above tissue culture plate seeded with cancer/normal cells. The final concentration of DMSO was 0.5% in wells. DMSO was used as a vehicle control. • c) After 24 hrs the plate was removed from CO2 incubator and 5 μL of CCK-8 (Dojindo Molecular Technologies, Inc. USA, catalog, no. CK04-20) per well was added. • d) The plate was then placed at 37° C. for 2 hrs. • e) The absorbance was recorded at 450 nm. • f) The percent cytotoxicity was calculated using the following formula
(§5) The IC50 value was estimated by visual inspection of the concentration-effect curve. For calculation of mean IC50 values over the fourteen cell lines as tested, the geometric mean was selected.

HeLa (Cervical Cancer) = settings: Homo sapiens, 24 hrs exposure
Protocol: as §1, §2, §3, §4, §5

[2] = system: FADU (Head and Neck Cancer); settings: Homo sapiens, 24 hrs exposure
Protocol: as §1, §2, §3, §4, §5

[3] = system: ACHN (Renal Cell Carcinoma); settings: Homo sapiens, 24 hrs exposure
Protocol: as §1, §2, §3, §4, §5

H460 = settings: Homo sapiens, NCI-H460, H460, Non Small Cell Lung, 24 hrs exposure
Protocol: as §1, §2, §3, §4, §5

G361 (Melanoma) = settings: Homo sapiens, G-361, 24 hrs exposure
Protocol: as §1, §2, §3, §4, §5

[4] = system: Panc-1 (Pancreatic Cancer); settings: Homo sapiens, 24 hrs exposure
Protocol: as §1, §2, §3, §4, §5

MDA-MB435S (Melanoma) = settings: Homo sapiens, MDA-MB-435S, MDAMB435S, 24 hrs exposure
Protocol: as §1, §2, §3, §4, §5

Calu-1 (Lung Carcinoma) = settings: Homo sapiens, 24 hrs exposure
Protocol: as §1, §2, §3, §4, §5

## CC(C)CC1CCC(O)(C(C)(O)C(=O)NC2C(=O)N3NCCCC3C(=O)N(O)C(C)C(=O)NCC(=O)N3NCCCC3C(=O)N(O)C(C)C(=O)OC2C(C)C)OC1C (stereo not drawn) [Formula (1a), N-(6,18-dihydroxy-22-isopropyl-7,19-dimethyl-5,8,11,17,20,24-hexaoxotetracosa hydrodipyridazino[6,1-f:6′,1′-o][1,4,7,10,13,16]oxapentaazacyclononadecin-23-yl)-2-hydroxy-2-(2-hydroxy-5-isobutyl-6-methyltetrahydro-2H-pyran-2-yl)propanamide]
[1]
  IC50: 15.9 ± 2.6 nM
HeLa (Cervical Cancer)
  IC50: 10.1 ± 3.1 nM
[2]
  IC50: 22.4 ± 1.2 nM
[3]
  IC50: 7.1 ± 0.64 nM
H460
  IC50: 9.2 ± 0.76 nM
G361 (Melanoma)
  IC50: 24.1 ± 4.3 nM
[4]
  IC50: 1.3 ± 0.32 nM
MDA-MB435S (Melanoma)
  IC50: 2.9 ± 0.48 nM
Calu-1 (Lung Carcinoma)
  IC50: 25.2 ± 3.5 nM
